{
  "source": "patent US20100120700A1",
  "about": "“METHODS AND COMPOSITIONS FOR TREATING CERVICAL CANCER” (priority 2000, published 2010)",
  "assay_in_all_cases": "G assay PDZ-PL binding",
  "conditions_in_all_cases": "peptide 10 uM, protein 5",
  "key": {"[1]": {"biological_target": "T1, APXL1 domain 1 (Homo sapiens, UniProt Q13796)", "T1 construct": "made in house; host or cells: E. coli (DH5alpha, BL21 or JM109), vector pGEX-3X", "T1 sequence (Q13796 with tags, fused parts or gaps)": "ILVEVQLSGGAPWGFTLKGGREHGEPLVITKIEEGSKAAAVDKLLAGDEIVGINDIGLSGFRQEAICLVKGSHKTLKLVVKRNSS", "procedure,_shortened": "(§1)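 Specific PDZ–peptide binding is taken as replicate mean signal exceeding GST-only background by standard-error criteria. Biotinylated PL peptides (20 uM; 10 uM under G′ conditions) bind to plate-captured GST/PDZ fusion protein and are detected with streptavidin-HRP at 450 nm.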"}, "[2]": {"biological_target": "T2, EBP50 #168.2 domain 2 (Homo sapiens, UniProt O14745)", "T2 construct": "made in house; host or cells: E. coli (DH5alpha, BL21 or JM109)", "T2 sequence (O14745 with tags, fused parts or gaps)": "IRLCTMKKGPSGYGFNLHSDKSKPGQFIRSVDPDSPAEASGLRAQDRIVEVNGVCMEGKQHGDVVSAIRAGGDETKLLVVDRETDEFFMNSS", "procedure,_shortened": "as §1"}, "[3]": {"biological_target": "T3, KIAA1719 domain 5 (Homo sapiens, UniProt Q9C0E4)", "T3 construct": "made in house; host or cells: E. coli (DH5alpha or BL-21)", "T3 sequence (Q9C0E4 with tags, fused parts or gaps)": "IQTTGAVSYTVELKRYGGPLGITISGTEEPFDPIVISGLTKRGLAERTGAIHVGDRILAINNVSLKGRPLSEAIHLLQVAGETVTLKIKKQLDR", "procedure,_shortened": "as §1"}, "[4]": {"biological_target": "T4, MUPP1 domain 10 (Homo sapiens, UniProt O75970)", "T4 construct": "made in house; host or cells: E. coli (DH5alpha or BL-21)", "T4 sequence (O75970 with tags, fused parts or gaps)": "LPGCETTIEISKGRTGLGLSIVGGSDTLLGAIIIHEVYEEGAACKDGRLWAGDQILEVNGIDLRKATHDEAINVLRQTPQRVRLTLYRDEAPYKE", "procedure,_shortened": "as §1"}, "[5]": {"biological_target": "T5, Numb BP domain 1 (Homo sapiens, UniProt Q8TBB1)", "T5 construct": "made in house; host or cells: E. coli (DH5alpha, BL21 or JM109)", "T5 sequence (Q8TBB1 with tags, fused parts or gaps)": "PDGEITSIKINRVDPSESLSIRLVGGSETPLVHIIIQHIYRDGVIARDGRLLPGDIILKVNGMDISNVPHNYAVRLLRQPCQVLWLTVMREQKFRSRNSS", "procedure,_shortened": "as §1"}, "[6]": {"biological_target": "T6, SSTRIP domain 1 (Homo sapiens, UniProt Q9Y566)", "T6 construct": "made in house; host or cells: E. coli (DH5alpha, BL21 or JM109)", "T6 sequence (Q9Y566 with tags, fused parts or gaps)": "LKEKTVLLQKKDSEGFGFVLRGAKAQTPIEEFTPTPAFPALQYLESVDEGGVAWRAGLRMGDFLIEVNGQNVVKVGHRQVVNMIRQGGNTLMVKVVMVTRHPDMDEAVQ", "procedure,_shortened": "as §1"}, "[7]": {"biological_target": "T7, TIAM 2 domain 1 (Homo sapiens, UniProt Q8IVF5)", "T7 construct": "made in house; host or cells: E. coli (DH5alpha, BL21 or JM109)", "T7 sequence (Q8IVF5 885-981)": "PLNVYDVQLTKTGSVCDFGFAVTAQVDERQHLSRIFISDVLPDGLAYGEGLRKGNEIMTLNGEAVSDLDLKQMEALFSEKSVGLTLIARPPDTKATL", "procedure,_shortened": "as §1"}, "[8]": {"biological_target": "T8, AF6 domain 1 (Homo sapiens, UniProt P55196)", "T8 construct": "made in house; host or cells: E. coli (DH5alpha or BL-21)", "T8 sequence (P55196 1001-1093)": "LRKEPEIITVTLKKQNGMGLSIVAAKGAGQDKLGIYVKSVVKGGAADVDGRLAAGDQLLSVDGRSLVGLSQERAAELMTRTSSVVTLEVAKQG"}},
  "note": "Where “and” joins values, the source holds several entries; their conditions need not be identical. Equal values may be shown once.",
  "data": [
    {"substance": "20 mer peptide corresponding to the C-terminus of HPV16 E6 (PDZ ligand), biotinylated in binding assays; ends SSRTRRETQL (SEQ ID NO: 13) [HPV E6 #16]", "values": [
      {"measurement": "Ave OD", "setting": "[1]; A450 nm", "result": "0.4605 and 0.708"},
      {"measurement": "OD S/N", "setting": "[1]; vs GST only well", "result": "3.14 and 2.96"},
      {"measurement": "Ave OD", "setting": "[2]; A450 nm", "result": 0.3455},
      {"measurement": "OD S/N", "setting": "[2]; vs GST only well", "result": 1.99},
      {"measurement": "Ave OD", "setting": "[3]; A450 nm", "result": 0.3895},
      {"measurement": "OD S/N", "setting": "[3]; vs GST only well", "result": 1.81},
      {"measurement": "Ave OD", "setting": "[4]; A450 nm", "result": "0.3925 and 0.3915"},
      {"measurement": "OD S/N", "setting": "[4]; vs GST only well", "result": "2.03 and 1.96"},
      {"measurement": "Ave OD", "setting": "[5]; A450 nm", "result": 0.352},
      {"measurement": "OD S/N", "setting": "[5]; vs GST only well", "result": 3.17},
      {"measurement": "Ave OD", "setting": "[6]; A450 nm", "result": 0.467},
      {"measurement": "OD S/N", "setting": "[6]; vs GST only well", "result": 3.28},
      {"measurement": "Ave OD", "setting": "[7]; A450 nm", "result": 0.356},
      {"measurement": "OD S/N", "setting": "[7]; vs GST only well", "result": 2.05},
      {"measurement": "Ave OD", "setting": "[8]; A450 nm", "result": 0.444},
      {"measurement": "OD S/N", "setting": "[8]; vs GST only well", "result": 1.80}
    ]}
  ]
}
